Data on 17 compounds can be found in patent publication US20260347373A1, “HETEROCYCLIC COMPOUNDS, COMPOSITIONS THEREOF, AND METHODS OF TREATMENT THEREWITH” (BeOne Medicines I GmbH, priority 2023, published 2026).

Molecules are shown by their SMILES. Read-outs that look alike come from different tables or passages of the source.

For one assay, the target named is WT KRAS (Homo sapiens, UniProt P01116). As to the kind of experiment: KRAS WT Probe Displacement Assay (TR-FRET, GDP-loaded). It is filed as binding. From the text: (§1) The synthetic routes of probe 1 and 2, which have been disclosed in PCT/CN2022/070676, are hereby incorporated herein.
On the technique in general: TR-FRET usually uses a lanthanide donor and a delayed reading to cut background.

For a further assay, the target named is KRAS G12D (Homo sapiens, UniProt P01116, G12D). As to the kind of experiment: KRAS G12D Probe Displacement Assay (TR-FRET, GDP-loaded). It is filed as binding.
Excerpt: as §1

Where [1] appears, read: KRAS WT, read-out: KRAS^WT Probe Displacement Assay IC50.
Setting [2] is: KRAS G12D, read-out: KRAS^G12D Probe Displacement Assay IC50.

Sequence of KRAS G12D (P01116 1-188 isoform P01116-2 G12D): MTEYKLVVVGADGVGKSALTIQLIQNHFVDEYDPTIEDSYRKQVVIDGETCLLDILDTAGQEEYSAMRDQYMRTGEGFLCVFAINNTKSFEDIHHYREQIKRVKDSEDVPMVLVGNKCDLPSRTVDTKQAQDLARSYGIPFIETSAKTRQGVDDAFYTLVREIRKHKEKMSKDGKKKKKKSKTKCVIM
Sequence of WT KRAS (P01116 1-188 isoform P01116-2): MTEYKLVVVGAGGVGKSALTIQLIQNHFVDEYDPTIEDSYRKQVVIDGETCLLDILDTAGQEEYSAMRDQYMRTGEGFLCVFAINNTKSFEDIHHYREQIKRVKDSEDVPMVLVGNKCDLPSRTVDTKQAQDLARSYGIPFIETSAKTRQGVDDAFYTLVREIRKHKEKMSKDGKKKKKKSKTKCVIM

Usually IC50 stands for the concentration that inhibits the measured activity by half. Regarding `CO[C@H]1CCN(C)[C@@H]1C(C)Oc1nc2c3c(nc(-c4cc(N)cc(C)c4C(F)(F)F)c(F)c3n1)OCC[C@@H]1[C@@H]3CC[C@H](CN21)N3` (single isomer, unassigned) [Example 75], the IC50 at WT KRAS (setting [1]) is 3 to 1000 nM; at KRAS G12D (setting [2]), less than 0.3 nM.

As for `Cc1cc(N)cc(-c2nc3c4c(nc(O[C@@H](C)[C@@H]5CC6(CC6)CN5C)nc4c2F)N2C[C@H]4CC[C@H](N4)[C@H]2CCO3)c1C(F)(F)F` [Example 143, 3-((6aR,7S,10R)-1-fluoro-13-((S)-1-((S)-5-methyl-5-azaspiro[2.4]heptan-6-yl)ethoxy)-5,6,6a,7,8,9,10,11-octahydro-4-oxa-3,11a,12,14,15-pentaaza[7,10]methanocyclohepta [4,5]cycloocta[1,2,3-de]naphthalen-2-yl)-5-methyl-4-(trifluoromethyl)aniline], the IC50 at WT KRAS (setting [1]) was 3 to 1000 nM; at KRAS G12D (setting [2]), less than 0.3 nM.

Consider `[2H]C([2H])([2H])N1CCC(C(F)F)C(C)(C([2H])([2H])Oc2nc3c4c(nc(-c5cc(N)cc(C)c5C(F)(F)F)c(F)c4n2)OCC[C@@H]2[C@@H]4CC[C@H](CN32)N4)C1` (single isomer, unassigned) [Example 240], for which the IC50 lay within 3 to 1000 nM at WT KRAS (setting [1]) and 0.3 to 3 nM at KRAS G12D (setting [2]).

For `[2H]C([2H])([2H])N1C[C@H](OC)C[C@H]1[C@H](C)Oc1nc2c3c(nc(-c4cc(N)cc(Cl)c4C(F)(F)F)c(F)c3n1)OCC[C@@H]1[C@@H]3CC[C@H](CN21)N3` [Example 220, 3-chloro-5-((6aR,7S,10R)-1-fluoro-13-((S)-1-((2S,4R)-4-methoxy-1-(methyl-d3)pyrrolidin-2-yl)ethoxy)-5,6,6a,7,8,9,10,11-octahydro-4-oxa-3,11a,12,14,15-pentaaza-7,10-methanocyclohepta[4,5]cycloocta[1,2,3-de]naphthalen-2-yl)-4-(trifluoromethyl)aniline], the IC50 was 3 to 1000 nM at WT KRAS (setting [1]) and less than 0.3 nM on KRAS G12D (setting [2]).

For `Cc1cc(N)cc(-c2nc3c4c(nc(OCC5(CN6CCC(C)(C#N)C6)CC5)nc4c2F)N2C[C@H]4CC[C@H](N4)[C@H]2CCO3)c1C(F)(F)F` (stereo partly drawn) [Example 167, 1-((1-((((6aR,7S,10R)-2-(5-amino-3-methyl-2-(trifluoromethyl)phenyl)-1-fluoro-5,6,6a,7,8,9,10,11-octahydro-4-oxa-3,11a,12,14,15-pentaaza-7,10-methanocyclohepta[4,5]cycloocta[1,2,3-de]naphthalen-13-yl)oxy)methyl)cyclopropyl)methyl)-3-methylpyrrolidine-3-carbonitrile], the IC50 on WT KRAS (setting [1]) is 0.3 to 3 nM; at KRAS G12D (setting [2]), less than 0.3 nM.

Consider `Cc1cc(N)cc(-c2nc3c4c(nc(OCC56C[C@@H](F)CN5C[C@H](F)C6)nc4c2F)N2C[C@H]4CC[C@H](N4)[C@H]2CCO3)c1C(F)(F)F` [Example 36, 3-((6aR,7S,10R)-13-(((2R,6R)-2,6-difluorotetrahydro-1H-pyrrolizin-7a(5H)-yl)methoxy)-1-fluoro-5,6,6a,7,8,9,10,11-octahydro-4-oxa-3,11a,12,14,15-pentaaza-7,10-methanocyclohepta[4,5]cycloocta [1,2,3-de]naphthalen-2-yl)-5-methyl-4-(trifluoromethyl)aniline], for which the IC50 was 3 to 1000 nM on WT KRAS (setting [1]) and less than 0.3 nM on KRAS G12D (setting [2]).

Take `CO[C@H]1CN2C[C@H](F)C[C@]2(COc2nc3c4c(nc(-c5cc(N)cc(Cl)c5C(F)(F)F)c(F)c4n2)OCC[C@@H]2[C@@H]4CC[C@H](CN32)N4)C1` [Example 215, 3-chloro-5-((6aR,7S,10R)-1-fluoro-13-(((2R,6R,7aS)-2-fluoro-6-methoxytetrahydro-1H-pyrrolizin-7a(5H)-yl)methoxy)-5,6,6a,7,8,9,10,11-octahydro-4-oxa-3,11a,12,14,15-pentaaza-7,10-methanocyclohepta[4,5]cycloocta[1,2,3-de]naphthalen-2-yl)-4-(trifluoromethyl)aniline]: the results for the IC50 on WT KRAS (setting [1]) and at KRAS G12D (setting [2]) were 3 to 1000 nM and less than 0.3 nM, respectively.

`CO[C@H]1CCN(CC2(COc3nc4c5c(nc(-c6cc(N)cc(C)c6C(F)(F)F)c(F)c5n3)OCC[C@@H]3[C@@H]5CC[C@H](CN43)N5)CC2)C[C@H]1F` [Example 185, 3-((6aR,7S,10R)-1-fluoro-13-((1-(((3R,4S)-3-fluoro-4-methoxypiperidin-1-yl)methyl)cyclopropyl)methoxy)-5,6,6a,7,8,9,10,11-octahydro-4-oxa-3,11a,12,14,15-pentaaza-7,10-methanocyclohepta[4,5]cycloocta[1,2,3-de]naphthalen-2-yl)-5-methyl-4-(trifluoromethyl)aniline]: the IC50 is 3 to 1000 nM at WT KRAS (setting [1]) and less than 0.3 nM at KRAS G12D (setting [2]).

For the compound `Cc1cc(N)cc(-c2nc3c4c(nc(OCC5(CN6CC(C(F)(F)F)C6)CC5)nc4c2F)N2C[C@H]4CC[C@H](N4)[C@H]2CCO3)c1C(F)(F)F` [Example 79, 3-((6aR,7S,10R)-1-fluoro-13-((1-((3-(trifluoromethyl)azetidin-1-yl)methyl)cyclopropyl)methoxy)-5,6,6a,7,8,9,10,11-octahydro-4-oxa-3,11a,12,14,15-pentaaza-7,10-methanocyclohepta [4,5]cycloocta [1,2,3-de]naphthalen-2-yl)-5-methyl-4-(trifluoromethyl)aniline], the IC50 on WT KRAS (setting [1]) is 3 to 1000 nM; at KRAS G12D (setting [2]) it was less than 0.3 nM.

As to `Cc1cc(N)cc(-c2nc3c4c(nc(OCC5(CN6CCOC[C@@H]6C)CC5)nc4c2F)N2C[C@H]4CC[C@H](N4)[C@H]2CCO3)c1C(F)(F)F` [Example 164, 3-((6aR,7S,10R)-1-fluoro-13-((1-(((S)-3-methylmorpholino)methyl)cyclopropyl)methoxy)-5,6,6a,7,8,9,10,11-octahydro-4-oxa-3,11a,12,14,15-pentaaza-7,10-methanocyclohepta[4,5]cycloocta[1,2,3-de]naphthalen-2-yl)-5-methyl-4-(trifluoromethyl)aniline], the IC50 was 3 to 1000 nM at WT KRAS (setting [1]) and less than 0.3 nM at KRAS G12D (setting [2]).

Consider `[2H]C([2H])([2H])N1CCC[C@H]1[C@H](C)Oc1nc2c3c(nc(-c4cc(N)cc(C)c4C(F)(F)F)c(F)c3n1)OCC[C@@H]1[C@@H]3CC[C@H](CN21)N3` [Example 141, 3-((6aR,7S,10R)-1-fluoro-13-((S)-1-((S)-1-(methyl-d3)pyrrolidin-2-yl)ethoxy)-5,6,6a,7,8,9,10,11-octahydro-4-oxa-3,11a,12,14,15-pentaaza-7,10-methano-cyclohepta[4,5]cycloocta [1,2,3-de]naphthalen-2-yl)-5-methyl-4-(trifluoromethyl)aniline], for which the IC50 at WT KRAS (setting [1]) was 3 to 1000 nM; on KRAS G12D (setting [2]), less than 0.3 nM.

In the case of `Cc1cc(N)cc(-c2nc3c4c(nc(N5CC(C)(N(C)C)C5)nc4c2F)N2C[C@H]4CC[C@H](N4)[C@H]2CCO3)c1C(F)(F)F` [Example 30], the IC50 at WT KRAS (setting [1]) fell in the range of 3 to 1000 nM; at KRAS G12D (setting [2]), 0.3 to 3 nM.

Take `Cc1cc(N)cc(-c2nc3c4c(nc(OCC5(CN6CCC(C(F)(F)F)CC6)CC5)nc4c2F)N2C[C@H]4CC[C@H](N4)[C@H]2CCO3)c1C(F)(F)F` [Example 113, 3-((6aR,7S,10R)-1-fluoro-13-((1-((4-(trifluoromethyl)piperidin-1-yl)methyl)cyclopropyl)methoxy)-5,6,6a,7,8,9,10,11-octahydro-4-oxa-3,11a,12,14,15-pentaaza-7,10-methanocyclohepta [4,5]cycloocta [1,2,3-de]naphthalen-2-yl)-5-methyl-4-(trifluoromethyl) aniline]: the IC50 at WT KRAS (KRAS^WT Probe Displacement Assay IC50, KRAS WT) is 0.3 to 3 nM; at KRAS G12D (KRAS^G12D Probe Displacement Assay IC50, KRAS G12D), less than 0.3 nM.

Turning to `CN1CCN(C)C(C)(COc2nc3c4c(nc(-c5cc(N)cc(Cl)c5C(F)(F)F)c(F)c4n2)OCC[C@@H]2[C@@H]4CC[C@H](CN32)N4)C1` (single isomer, unassigned) [Example 3], the IC50 on WT KRAS (setting [1]) is 3 to 1000 nM; at KRAS G12D (setting [2]) it was less than 0.3 nM.

For `Cc1cc(N)cc(-c2nc3c4c(nc(OCC5(CN6CCCC67CCOC7)CC5)nc4c2F)N2C[C@H]4CC[C@H](N4)[C@H]2CCO3)c1C(F)(F)F` (stereo partly drawn) [Example 190, 3-((6aR,7S,10R)-13-((1-((7-oxa-1-azaspiro[4.4]nonan-1-yl)methyl)cyclopropyl)methoxy)-1-fluoro-5,6,6a,7,8,9,10,11-octahydro-4-oxa-3,11a,12,14,15-pentaaza[7,10]methanocyclohepta[4,5]cycloocta[1,2,3-de]naphthalen-2-yl)-5-methyl-4-(trifluoromethyl)aniline], the IC50 at WT KRAS (setting [1]) was 3 to 1000 nM; at KRAS G12D (setting [2]), less than 0.3 nM.

As for `C=C1CN2C[C@H](F)C[C@]2(COc2nc3c4c(nc(-c5cc(N)cc(C)c5C(F)(F)F)c(F)c4n2)OCC[C@@H]2[C@@H]4CC[C@H](CN32)N4)C1` [Example 210, 3-((6aR,7S,10R)-1-fluoro-13-(((2R,7aS)-2-fluoro-6-methylenetetrahydro-1H-pyrrolizin-7a(5H)-yl)methoxy)-5,6,6a,7,8,9,10,11-octahydro-4-oxa-3,11a,12,14,15-pentaaza-7,10-methanocyclohepta[4,5]cycloocta[1,2,3-de]naphthalen-2-yl)-5-methyl-4-(trifluoromethyl)aniline], the IC50 was 3 to 1000 nM on WT KRAS (setting [1]) and less than 0.3 nM at KRAS G12D (setting [2]).

Take `Nc1cc(Cl)c(C(F)(F)F)c(-c2nc3c4c(nc(OCC56C[C@@H](F)CN5C[C@H](F)C6)nc4c2F)N2C[C@H]4CC[C@H](N4)[C@H]2CCO3)c1` [Example 72, 3-chloro-5-((6aR,7S,10R)-13-(((2R,6R)-2,6-difluorotetrahydro-1H-pyrrolizin-7a(5H)-yl)methoxy)-1-fluoro-5,6,6a,7,8,9,10,11-octahydro-4-oxa-3,11a,12,14,15-pentaaza-7,10-methanocyclohepta[4,5]cycloocta [1,2,3-de]naphthalen-2-yl)-4-(trifluoromethyl)aniline]: the values for the IC50 at WT KRAS (setting [1]) and at KRAS G12D (setting [2]) were 3 to 1000 nM and less than 0.3 nM, respectively.
